According to the NIST ThermoML archive (doi:10.1021/je9003806):

Assay: excess molar enthalpy (molar enthalpy of mixing); xn = mol fraction of the nth substance listed
Conditions: 101.3 kPa, Liquid, Flow calorimetry

CCOC(=O)CC(=O)OCC [diethyl 1,3-propanedioate] + CC(C)O
excess molar enthalpy [kcal/mol]
Conditions | 288.2 K | 298.2 K | 313.2 K | 328.2 K
x1 = 0.0511 | 0.145 | 0.151 | 0.158 | 0.163
x1 = 0.1001 | 0.244 | 0.263 | 0.277 | 0.292
x1 = 0.1511 | 0.322 | 0.35 | 0.378 | 0.39
x1 = 0.2012 | 0.387 | 0.419 | 0.449 | 0.473
x1 = 0.2494 | 0.431 | 0.467 | 0.51 | 0.531
x1 = 0.3015 | 0.47 | 0.51 | 0.557 | 0.576
x1 = 0.3507 | 0.5 | 0.542 | 0.586 | 0.611
x1 = 0.3998 | 0.516 | 0.56 | 0.606 | 0.63
x1 = 0.4484 | 0.523 | 0.569 | 0.616 | 0.639
x1 = 0.5003 | 0.524 | 0.566 | 0.611 | 0.637
x1 = 0.5513 | 0.519 | 0.56 | 0.6 | 0.62
x1 = 0.6007 | 0.501 | 0.539 | 0.582 | 0.597
x1 = 0.6478 | 0.483 | 0.52 | 0.555 | 0.561
x1 = 0.6977 | 0.449 | 0.482 | 0.511 | 0.516
x1 = 0.7508 | 0.398 | 0.431 | 0.451 | 0.454
x1 = 0.8007 | 0.345 | 0.379 | 0.391 | 0.387
x1 = 0.8468 | 0.286 | 0.309 | 0.32 | 0.302
x1 = 0.9023 | 0.185 | 0.219 | 0.213 | 0.202
x1 = 0.9537 | 0.0963 | 0.111 | 0.104 | 0.0935

CCOC(=O)CC(=O)OCC [diethyl 1,3-propanedioate] + CCCO
excess molar enthalpy [kcal/mol]
Conditions | 288.2 K | 298.2 K | 313.2 K | 328.2 K
x1 = 0.0499 | 0.116 | 0.128 | 0.138 | 0.143
x1 = 0.1004 | 0.207 | 0.225 | 0.25 | 0.266
x1 = 0.1588 | – | 0.314 | 0.345 | 0.371
x1 = 0.209 | – | 0.376 | 0.415 | 0.447
x1 = 0.2513 | 0.381 | 0.418 | 0.458 | 0.491
x1 = 0.3 | 0.415 | 0.456 | 0.5 | 0.536
x1 = 0.3491 | 0.443 | 0.485 | 0.533 | 0.571
x1 = 0.3982 | 0.462 | 0.504 | 0.554 | 0.593
x1 = 0.451 | 0.472 | 0.515 | 0.565 | 0.603
x1 = 0.499 | 0.478 | 0.52 | 0.567 | 0.602
x1 = 0.5503 | 0.474 | 0.512 | 0.559 | 0.592
x1 = 0.6002 | 0.462 | 0.497 | 0.539 | 0.567
x1 = 0.6479 | 0.445 | 0.476 | 0.511 | 0.539
x1 = 0.6986 | 0.419 | 0.447 | 0.47 | 0.493
x1 = 0.7525 | 0.376 | 0.399 | 0.418 | 0.434
x1 = 0.797 | 0.334 | 0.352 | 0.361 | 0.375
x1 = 0.8506 | 0.269 | 0.28 | 0.284 | 0.294
x1 = 0.9003 | 0.196 | 0.197 | 0.205 | 0.204
x1 = 0.9527 | 0.105 | 0.104 | 0.103 | 0.0999

CCOC(=O)CC(=O)OCC [diethyl 1,3-propanedioate] + CCO
excess molar enthalpy [kcal/mol]
Conditions | 288.2 K | 298.2 K | 313.2 K | 328.2 K
x1 = 0.0501 | 0.0949 | 0.101 | 0.114 | 0.119
x1 = 0.1004 | 0.168 | 0.185 | 0.205 | 0.222
x1 = 0.1491 | 0.233 | 0.247 | 0.279 | 0.304
x1 = 0.1995 | 0.282 | 0.301 | 0.337 | 0.366
x1 = 0.2507 | 0.318 | 0.346 | 0.387 | 0.42
x1 = 0.2985 | 0.348 | 0.379 | 0.425 | 0.46
x1 = 0.3517 | 0.374 | 0.407 | 0.454 | 0.491
x1 = 0.399 | 0.39 | 0.425 | 0.473 | 0.51
x1 = 0.4509 | 0.401 | 0.435 | 0.486 | 0.522
x1 = 0.4985 | 0.406 | 0.442 | 0.489 | 0.527
x1 = 0.5503 | 0.404 | 0.437 | 0.485 | 0.517
x1 = 0.6013 | 0.395 | 0.428 | 0.469 | 0.499
x1 = 0.6504 | 0.38 | 0.41 | 0.448 | 0.477
x1 = 0.6967 | 0.359 | 0.386 | 0.422 | 0.442
x1 = 0.7465 | 0.328 | 0.352 | 0.38 | 0.396
x1 = 0.8002 | 0.284 | 0.302 | 0.322 | 0.333
x1 = 0.8497 | 0.232 | 0.242 | 0.259 | 0.269
x1 = 0.9027 | 0.164 | 0.172 | 0.179 | 0.186
x1 = 0.9498 | 0.0896 | 0.0946 | 0.105 | 0.101

CCOC(=O)CC(=O)OCC [diethyl 1,3-propanedioate] + CO
excess molar enthalpy [kcal/mol]
Conditions | 288.2 K | 298.2 K | 313.2 K | 328.2 K
x1 = 0.05 | 0.066 | 0.0734 | 0.081 | 0.0872
x1 = 0.0996 | 0.123 | 0.133 | 0.146 | 0.161
x1 = 0.1496 | 0.167 | 0.182 | 0.203 | 0.221
x1 = 0.2011 | 0.205 | 0.224 | 0.249 | 0.274
x1 = 0.2515 | 0.236 | 0.259 | 0.286 | 0.316
x1 = 0.3009 | 0.261 | 0.286 | 0.318 | 0.349
x1 = 0.3506 | 0.281 | 0.307 | 0.343 | 0.376
x1 = 0.3988 | 0.299 | 0.325 | 0.361 | 0.394
x1 = 0.4486 | 0.31 | 0.335 | 0.374 | 0.407
x1 = 0.4993 | 0.313 | 0.341 | 0.378 | 0.408
x1 = 0.55 | 0.315 | 0.343 | 0.376 | 0.409
x1 = 0.5995 | 0.307 | 0.337 | 0.369 | 0.396
x1 = 0.6464 | 0.3 | 0.323 | 0.355 | 0.38
x1 = 0.698 | 0.282 | 0.304 | 0.332 | 0.353
x1 = 0.7453 | 0.261 | 0.283 | 0.303 | 0.316
x1 = 0.7969 | 0.234 | 0.243 | 0.26 | 0.278
x1 = 0.8536 | 0.19 | 0.184 | 0.202 | 0.213
x1 = 0.903 | 0.139 | 0.14 | 0.144 | 0.145
x1 = 0.95 | 0.0801 | 0.0772 | 0.0719 | 0.0473
